Assays:
mice [1] = experiment: Elevated plus-maze test in mice (Section 1, incl. Table 1); type: in vivo, male Swiss mice; details: mice, i.p.
Procedure: Performance of mice on the elevated plus-maze test was used to measure anxiolytic actions in rodents, following i.p. administration of vehicle or compound (II).
The animals used in the pharmacological test were male Swiss mice from breeding stock, weighing 28-35 g. They were placed n groups of ten with free access to water and food, and maintained on 12 h/12 h day/night cycle. In all the tests the mice were i.p. injected with VEH or a solution of the drug, 15 minutes before the assay.
The elevated plus-maze set-up consisted of a maze of two open arms, 25×5 cm, crossed by two closed arms of the same dimensions, with free access to all arms from the crossing point. The closed arms had walls 35 cm high all around. The maze was suspended 50 cm from the room floor. Mice were placed on the central part of the cross facing an open arm. The number of entries and the time spent going into open and closed arms were counted during 5 minutes. […] The total exploratory activity (number of entries in both arms) was also determined.

Holeboard test in mice = type: in vivo, male Swiss mice; details: mouse, in vivo, ip; 10 mg/kg vs anxiolytic dose; read-out: dose decreasing holeboard parameters relative to anxiolytic dose
Procedure: (§1) Adult male Wistar rats weighing 250 g were used for biochemical experiments. Adult male Swiss male weighing 25-30 g were used for pharmacological assays except for inhibitory avoidance and tail flick tests were done in rats. Animals were housed in a controlled environment, with free access to food and water and maintained on a 12 h/12 h day/night cycle.
(§2) The test was performed according to Viola et al. (1994) and Wolfman et al. (1994). The number of head dips and the time spent head dipping were counted during 5 min.

mice [2] = experiment: Holeboard test in mice; type: in vivo, male Swiss mice; details: for number of head dips and time spent head-dipping: mice, i.p.
Procedure: as §1, §2

rats = experiment: Tail-flick test in rats; type: in vivo, rat
Procedure: This test was performed according to Siegfried et al. (1987). Analgesia was assessed with a tail-flick apparatus. Rats were wrapped in a towel and placed on the apparatus; the light source positioned below the tail was focused on a point 2.3 cm rostral to the tip of the tail. Deflection of the tail activated a photocell and automatically terminated the trial. Light intensity was adjusted so as to obtain a baseline tail-flick latency (TFL) of 3-6 s. A cut-off time of 10 s was used to prevent tissue damage. Briefly, the general procedure was as follows: a baseline TFL value was obtained for each animal. Following this, the rats were placed alone in a waiting cage. TFL value was measured 1 h after an i.p. injection of vehicle or DNF.

[3] = biological target: central benzodiazepine receptor (Rattus norvegicus, UniProt P18508+P62813); experiment: Autoradiographic [3H]-FNZ displacement on rat brain sections; type: binding, rat (Wistar); design: Wistar rats were decapitated and brains rapidly removed; from tissue; host or cells: Wistar rat brain sagittal sections
Procedure: Wistar rats were decapitated and brains rapidly removed. Sagittal sections (15 μm in thickness) were prepared at -20° C. using a microtome-cryostat. The tissue slices were kept frozen at -70° C. until used. For DNF displacement curves to [^3 H]--FNZ binding (0.65 nM), tissue sections were incubated for 60 min at 4° C. in 25 mM Tris HCl buffer, pH 7.4, in presence of different concentrations of DNF (1-600 nM). For non-specific binding we used 10 μM FNZ. The incubation was terminated by rinsing the sections for two min in cold buffer. Sections were briefly dipped in cold distilled water and dried rapidly under a stream of cold air (Niddam et al., 1987).
Autoradiograms were generated by apposing the slide-mounted tissue section to tritium-sensitive film (Hyperfilm Amersham) in a light-proof X-ray cassette at 4° C. for two weeks.
The optical densities from different brain regions were converted first to radioactive units and then to fmol/mm^2 using the [^3 H] standards on the film with the aid of a computerized image densitometric analysis system (MCID 4.02). The values were normalized and the Ki values were determined using a computerized program (Graph-Pad Prism) Bernabeu et al., 1995; Cammarota et al., 1995).

Chain of central benzodiazepine receptor (P62813 28-455): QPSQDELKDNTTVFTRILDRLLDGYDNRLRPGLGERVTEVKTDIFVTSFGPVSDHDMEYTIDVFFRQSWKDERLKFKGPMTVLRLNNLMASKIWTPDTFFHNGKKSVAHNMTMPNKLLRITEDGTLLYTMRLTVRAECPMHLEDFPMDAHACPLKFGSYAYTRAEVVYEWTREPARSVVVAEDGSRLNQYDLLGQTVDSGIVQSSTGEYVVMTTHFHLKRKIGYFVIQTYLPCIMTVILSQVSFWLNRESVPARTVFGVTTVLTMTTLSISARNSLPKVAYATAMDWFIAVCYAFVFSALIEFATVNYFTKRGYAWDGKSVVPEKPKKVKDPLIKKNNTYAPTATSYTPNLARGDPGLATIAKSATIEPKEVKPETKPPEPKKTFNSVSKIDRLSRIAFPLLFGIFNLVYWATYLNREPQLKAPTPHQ
Chain of central benzodiazepine receptor (P18508 39-466): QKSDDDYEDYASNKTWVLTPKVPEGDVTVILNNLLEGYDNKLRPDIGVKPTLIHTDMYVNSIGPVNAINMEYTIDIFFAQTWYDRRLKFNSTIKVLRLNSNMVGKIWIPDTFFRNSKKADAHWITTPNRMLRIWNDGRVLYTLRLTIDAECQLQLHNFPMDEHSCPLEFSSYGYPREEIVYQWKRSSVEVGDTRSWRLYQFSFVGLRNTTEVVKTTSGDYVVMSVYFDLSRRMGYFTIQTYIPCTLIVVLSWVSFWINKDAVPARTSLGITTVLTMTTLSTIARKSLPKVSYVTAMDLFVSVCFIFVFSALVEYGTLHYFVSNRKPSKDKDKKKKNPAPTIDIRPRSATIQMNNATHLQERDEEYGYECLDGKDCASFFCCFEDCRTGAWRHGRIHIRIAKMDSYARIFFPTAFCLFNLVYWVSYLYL
Chain of central benzodiazepine receptor (P63138 26-474 partner): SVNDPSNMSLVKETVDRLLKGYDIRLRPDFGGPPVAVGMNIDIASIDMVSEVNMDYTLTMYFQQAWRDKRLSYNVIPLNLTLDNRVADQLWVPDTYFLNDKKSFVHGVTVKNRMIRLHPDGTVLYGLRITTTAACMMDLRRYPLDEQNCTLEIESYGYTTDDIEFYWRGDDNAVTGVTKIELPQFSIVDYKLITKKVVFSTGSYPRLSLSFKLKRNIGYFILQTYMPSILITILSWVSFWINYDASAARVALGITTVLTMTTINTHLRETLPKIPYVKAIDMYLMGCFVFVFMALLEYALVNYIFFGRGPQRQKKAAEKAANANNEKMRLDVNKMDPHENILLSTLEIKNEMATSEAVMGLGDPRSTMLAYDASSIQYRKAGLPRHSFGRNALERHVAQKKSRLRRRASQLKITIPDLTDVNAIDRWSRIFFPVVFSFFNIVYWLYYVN

## O=c1cc(-c2cccc([N+](=O)[O-])c2)oc2ccc([N+](=O)[O-])cc12 [Compound (II), 6,3'-dinitroflavone]
Mice [1]; 3 and 30 μg/kg
  percentage of the time spent in the open arms: enhanced the percentage of the time spent in the open arms
Mice [1]; doses 0 to 30 μg/kg
  total arm entries: without affecting the total arm entries
Mice [1]; doses 0 to 30 μg/kg, 15 min before test
  percentage of entries in the open arms: increased the percentage of entries in the open arms
Holeboard test in mice
  selectivity ratio: 300
Mice [2]; 10 mg/kg, p<0.01
  number of head dips and time spent head-dipping: decreased both parameters
Mice [2]; up to 3 mg/kg
  number of head dips and time spent head-dipping: did not change the number of head dips and the time spent head-dipping
Mice [2]; ratio to diazepam, higher dose
  dose to produce similar sedative effects in comparison to DZ: 10 fold
rats; rats, 100 μg/kg, 1 h after i.p., median (interquartile), n=11, vehicle 3.2 s
  tail-flick latency (TFL): 3.5 s
rats; rats, i.p., 100 μg/kg
  TFL (in words): did not alter TFL
rats; up to 10 mg/kg as worded
  analgesic effects: did not evidence anticonvulsant, myorelaxant, amnesic or analgesic effects
[3]
  Ki: 17.2 ± 2.3 nM

Reference: patent publication US6080780A, “Use of nitroflavonoids for the treatment of anxiety” (University of Strathclyde, priority 1995, dated 2000)
